Legend:
Assay type in all cases: in vivo
[1] = tested on: NK model in Chinchilla rabbits (ophthalmic branch (V1) of trigeminal nerve injured with sodium hydroxide); experiment: Corneal ulceration area, slit-lamp with cobalt blue light, NK rabbit model; settings: for Corneal Ulceration Area: X ± SEM, n = 8
Description: (§1) The NK model is established in Chinchilla rabbits by using a chemical method to destroy the ophthalmic branch (V1) of trigeminal nerve to induce NK. Briefly, animals were anesthetized. […] The trigeminal nerve was carefully separated from surrounding fasciae, and the ophthalmic nerve (V1) of trigeminal nerve was isolated and injured with sodium hydroxide solution. The V1 injury was performed for unilateral eye in each animal for 5 days prior to treatment.
(§2) A total of 16 animals were assigned randomly into two groups based on corneal ulcer areas at Day 1 prior to the treatments, and the animals received either BRM424 ophthalmic solution (OS containing 0.03% BRM424; TA-1 group) or Vehicle (TA-2 group) in the surgical eye three times daily (TID, eye drops) for 28 days. During the study period, the corneal ulcer areas, corneal fluorescein staining, corneal sensitivity, Schirmer test, and Tear film break-up time (TFBUT) at baseline (Day 0), Day 4, Day 8, Day 15, Day 22, and Day 29 were measured.
Corneal ulceration areas were measured from images taken during slit-lamp examination with cobalt blue light. […] At Day 0, the corneal ulceration areas were 25.98±1.88 mm^2 for the TA-1 group and 27.65±2.66 mm^2 for the TA-2 group, and these areas were reduced to 7.80±1.45 mm^2 and 13.30±2.36 mm^2 by Day 8 for the TA-1 group and TA-2 group, respectively.

[2] = tested on: NK model in Chinchilla rabbits (ophthalmic branch (V1) of trigeminal nerve injured with sodium hydroxide); experiment: Central corneal sensitivity with Von Frey filaments, NK rabbit model; settings: for Corneal Sensitivity, Contact force (Nylon size) / Corneal Sensitivity, Contact force: X ± SEM, n = 8
Description: as §1, §2
Central corneal sensitivity was monitored using Von Frey filaments. Various forces of calibrated Von Frey filaments (0.008-300 g) were applied to the center of the cornea surface of immobilized animal. The mechanical threshold response was determined by assessing treated-eye blinking response evoked by the same calibrated Von Frey filaments twice out of three times. FIG. 4A and FIG. 4B show results for corneal sensitivity tests. Prior to the dose administration (Day 0), there was no corneal reflex in all animals, even when using the coarsest nylon filament (Force 0.008-300 g).

[3] = tested on: NK model in Chinchilla rabbits (ophthalmic branch (V1) of trigeminal nerve injured with sodium hydroxide); experiment: Corneal fluorescein staining (FL score), NK rabbit model; design: Fluorescein Staining Score: scale not given here; settings: for Fluorescein Staining Score: X ± SEM, n = 8
Description: as §1, §2
Cornea damage may be assessed using corneal fluorescein staining. […] The mean value of corneal fluorescein sodium staining scores at Day 0 was 3.62±0.18 for both the TA-1 and TA-2 groups and fell below 3 (TA-1=1.38±0.18, TA-2=2.36±0.42) by Day 8, indicating a quick onset of action. […] The fluorescein staining score of the TA-1 group reached 1 by Day 29.

[4] = tested on: NK model in Chinchilla rabbits (ophthalmic branch (V1) of trigeminal nerve injured with sodium hydroxide); experiment: Tear film break-up time (TFBUT), NK rabbit model; settings: for TFBUT: X ± SEM, n = 8
Description: as §1, §2

[5] = tested on: NK model in Chinchilla rabbits (ophthalmic branch (V1) of trigeminal nerve injured with sodium hydroxide); experiment: Schirmer test for tear production, NK rabbit model; settings: for Schirmer Test: X ± SEM, n = 8
Description: as §1, §2
However, the tear volumes of the TA-1 group at Day 29 were about 2-fold higher than that at Day 0.

[6] = Day 0 (baseline, prior to treatment)
[7] = Day 0 (baseline, prior to treatment), listed as TA-1
[8] = Day 4, 0.03% BRM424 ophthalmic solution TID
[9] = Day 8, 0.03% BRM424 ophthalmic solution TID
[10] = Day 15, 0.03% BRM424 ophthalmic solution TID
[11] = Day 22, 0.03% BRM424 ophthalmic solution TID
[12] = Day 29, 0.03% BRM424 ophthalmic solution TID
[13] = after 29 days of topical dose administrations

SLGAEQRTESIIHRALYYDLISSPDIHGT (ophthalmic solution 0.03%; listed as Homo sapiens) [BRM424, PEDF-derived short peptide (PDSP), residues 93-121 of PEDF]
Corneal Ulceration Area [1, 6]: 25.98 ± 1.88 mm^2 | Corneal Ulceration Area [1, 7]: 25.98±1.88 mm^2 | Corneal Ulceration Area ([1]; Day 4, 0.03% BRM424 ophthalmic solution, eye drops TID, surgical eye): 13.63 ± 2.51 mm^2 | Corneal ulceration area reduction compared with vehicle (TA-2) group ([1]; Day 8, Day 15 and Day 29, p<0.05): more than that of TA-2 group | Corneal Ulceration Area ([1]; Day 8, 0.03% BRM424 ophthalmic solution, eye drops TID, surgical eye): 7.80 ± 1.45 mm^2 | Corneal Ulceration Area ([1]; Day 8, 0.03% BRM424 ophthalmic solution, eye drops TID, surgical eye, listed as TA-1): 7.80±1.45 mm^2 | Corneal Ulceration Area ([1]; Day 15, 0.03% BRM424 ophthalmic solution, eye drops TID, surgical eye): 9.93 ± 2.46 mm^2 | Corneal Ulceration Area ([1]; Day 22, 0.03% BRM424 ophthalmic solution, eye drops TID, surgical eye): 7.29 ± 2.11 mm^2 | Corneal Ulceration Area ([1]; Day 29, 0.03% BRM424 ophthalmic solution, eye drops TID, surgical eye): 4.81 ± 1.44 mm^2 | Corneal Sensitivity, Contact force (Nylon size) ([2]; Day 0 (baseline, prior to treatment), Von Frey filament that triggered corneal reflex): 6.65 ± 0.00 | Corneal Sensitivity, Contact force ([2]; Day 0 (baseline, prior to treatment), force that triggered corneal reflex): 300.00 ± 0.00 g | Corneal Sensitivity, Contact force [2, 8]: 300.00 ± 0.00 g | Corneal Sensitivity, Contact force (Nylon size) [2, 8]: 6.65 ± 0.00 | Corneal Sensitivity, Contact force [2, 9]: 300.00 ± 0.00 g | Corneal Sensitivity, Contact force (Nylon size) [2, 9]: 6.65 ± 0.00 | Corneal Sensitivity, Contact force [2, 10]: 235.75 ± 42.18 g | Corneal Sensitivity, Contact force (Nylon size) [2, 10]: 6.41 ± 0.16 | Corneal Sensitivity, Contact force [2, 11]: 300.00 ± 0.00 g | Corneal Sensitivity, Contact force (Nylon size) [2, 11]: 6.65 ± 0.00 | Corneal Sensitivity, Contact force [2, 12]: 189.75 ± 53.80 g | Corneal Sensitivity, Contact force (Nylon size) [2, 12]: 5.93 ± 0.35 | Corneal sensation recovery compared with vehicle (TA-2) group ([2]; after 29 days of treatments): recovered faster with better improvement than the TA-2 group | Fluorescein Staining Score [3, 6]: 3.62 ± 0.18 | Fluorescein Staining Score [3, 7]: 3.62±0.18 | Fluorescein Staining Score ([3]; Day 4, 0.03% BRM424 ophthalmic solution, eye drops TID): 2.00 ± 0.38 | Fluorescein Staining Score ([3]; Day 8, 0.03% BRM424 ophthalmic solution, eye drops TID): 1.38 ± 0.18 | Fluorescein Staining Score ([3]; Day 8, 0.03% BRM424 ophthalmic solution, eye drops TID, listed as TA-1): 1.38±0.18 | Fluorescein staining score, difference between TA-1 and TA-2 (vehicle) groups ([3]; Day 8 and Day 15, P<0.05): Significant difference | Fluorescein Staining Score ([3]; Day 15, 0.03% BRM424 ophthalmic solution, eye drops TID): 1.63 ± 0.36 | Fluorescein Staining Score ([3]; Day 22, 0.03% BRM424 ophthalmic solution, eye drops TID): 1.25 ± 0.16 | Fluorescein Staining Score ([3]; Day 29, 0.03% BRM424 ophthalmic solution, eye drops TID): 1.00 ± 0.19 | Fluorescein Staining Score ([3]; Day 29, 0.03% BRM424 ophthalmic solution, eye drops TID, listed as TA-1): 1 | TFBUT [4, 6]: 5.50 ± 0.33 s | TFBUT [4, 8]: 4.88 ± 0.48 s | TFBUT [4, 9]: 6.75 ± 0.45 s | TFBUT [4, 10]: 5.13 ± 0.55 s | TFBUT [4, 11]: 4.38 ± 0.32 s | TFBUT [4, 12]: 5.38 ± 0.32 s | TFBUT, difference between TA-1 and TA-2 (vehicle) groups [4, 13]: no significant difference | Schirmer Test [5, 6]: 5.63 ± 0.71 mm | Schirmer Test [5, 8]: 6.00 ± 0.93 mm | Schirmer Test [5, 9]: 5.50 ± 1.02 mm | Schirmer Test [5, 10]: 6.38 ± 0.86 mm | Schirmer Test [5, 11]: 6.50 ± 1.24 mm | Schirmer Test [5, 12]: 10.75 ± 1.59 mm | Tear volumes at Day 29 relative to Day 0 ([5]; Day 29 vs Day 0, same group): about 2 fold | Tear volumes, difference between TA-1 and TA-2 (vehicle) groups [5, 13]: no significant difference

From patent US20260256881A1, “COMPOSITIONS COMPRISING PEDF-DERIVED SHORT PEPTIDES FOR THE TREATMENT OF NEUROTROPHIC KERATITIS DISEASES” (BRIM Biotechnology, Inc., priority 2022, published 2026)
